Earlier results as cited in US20150104528A1, “TREATMENT FOR DEPRESSION AND OTHER MENTAL CONDITIONS WITH SYNTHETIC ISOTOPE-MODIFIED LITHIUM” (priority 2013, published 2015).

System: female mother rats
Conditions: female mother rats fed the substance; same dosage level for both groups

[6Li] [lithium-6]
state of alertness compared to control rats fed a placebo: very high
